Where two headings read alike, the source gives them in different places.
Experiments:
Nav1.6 = Nav1.6 (Homo sapiens, UniProt Q9UQD0); experiment: % block of Nav1.6 at 100 μM and IC50 (NaV1.6); assay type: cell-based
How it was run: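 Nav1.6 block recorded as percent inhibition at 100 μM compound; IC50 also reported.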

NaV1.6 sodium channels = NaV1.6 sodium channels (Homo sapiens, UniProt Q9UQD0); experiment: State-dependent inhibition: steady state inactivation, use-dependent block; assay type: cell-based
Chain of NaV1.6 sodium channels (Q9UQD0 whole entry): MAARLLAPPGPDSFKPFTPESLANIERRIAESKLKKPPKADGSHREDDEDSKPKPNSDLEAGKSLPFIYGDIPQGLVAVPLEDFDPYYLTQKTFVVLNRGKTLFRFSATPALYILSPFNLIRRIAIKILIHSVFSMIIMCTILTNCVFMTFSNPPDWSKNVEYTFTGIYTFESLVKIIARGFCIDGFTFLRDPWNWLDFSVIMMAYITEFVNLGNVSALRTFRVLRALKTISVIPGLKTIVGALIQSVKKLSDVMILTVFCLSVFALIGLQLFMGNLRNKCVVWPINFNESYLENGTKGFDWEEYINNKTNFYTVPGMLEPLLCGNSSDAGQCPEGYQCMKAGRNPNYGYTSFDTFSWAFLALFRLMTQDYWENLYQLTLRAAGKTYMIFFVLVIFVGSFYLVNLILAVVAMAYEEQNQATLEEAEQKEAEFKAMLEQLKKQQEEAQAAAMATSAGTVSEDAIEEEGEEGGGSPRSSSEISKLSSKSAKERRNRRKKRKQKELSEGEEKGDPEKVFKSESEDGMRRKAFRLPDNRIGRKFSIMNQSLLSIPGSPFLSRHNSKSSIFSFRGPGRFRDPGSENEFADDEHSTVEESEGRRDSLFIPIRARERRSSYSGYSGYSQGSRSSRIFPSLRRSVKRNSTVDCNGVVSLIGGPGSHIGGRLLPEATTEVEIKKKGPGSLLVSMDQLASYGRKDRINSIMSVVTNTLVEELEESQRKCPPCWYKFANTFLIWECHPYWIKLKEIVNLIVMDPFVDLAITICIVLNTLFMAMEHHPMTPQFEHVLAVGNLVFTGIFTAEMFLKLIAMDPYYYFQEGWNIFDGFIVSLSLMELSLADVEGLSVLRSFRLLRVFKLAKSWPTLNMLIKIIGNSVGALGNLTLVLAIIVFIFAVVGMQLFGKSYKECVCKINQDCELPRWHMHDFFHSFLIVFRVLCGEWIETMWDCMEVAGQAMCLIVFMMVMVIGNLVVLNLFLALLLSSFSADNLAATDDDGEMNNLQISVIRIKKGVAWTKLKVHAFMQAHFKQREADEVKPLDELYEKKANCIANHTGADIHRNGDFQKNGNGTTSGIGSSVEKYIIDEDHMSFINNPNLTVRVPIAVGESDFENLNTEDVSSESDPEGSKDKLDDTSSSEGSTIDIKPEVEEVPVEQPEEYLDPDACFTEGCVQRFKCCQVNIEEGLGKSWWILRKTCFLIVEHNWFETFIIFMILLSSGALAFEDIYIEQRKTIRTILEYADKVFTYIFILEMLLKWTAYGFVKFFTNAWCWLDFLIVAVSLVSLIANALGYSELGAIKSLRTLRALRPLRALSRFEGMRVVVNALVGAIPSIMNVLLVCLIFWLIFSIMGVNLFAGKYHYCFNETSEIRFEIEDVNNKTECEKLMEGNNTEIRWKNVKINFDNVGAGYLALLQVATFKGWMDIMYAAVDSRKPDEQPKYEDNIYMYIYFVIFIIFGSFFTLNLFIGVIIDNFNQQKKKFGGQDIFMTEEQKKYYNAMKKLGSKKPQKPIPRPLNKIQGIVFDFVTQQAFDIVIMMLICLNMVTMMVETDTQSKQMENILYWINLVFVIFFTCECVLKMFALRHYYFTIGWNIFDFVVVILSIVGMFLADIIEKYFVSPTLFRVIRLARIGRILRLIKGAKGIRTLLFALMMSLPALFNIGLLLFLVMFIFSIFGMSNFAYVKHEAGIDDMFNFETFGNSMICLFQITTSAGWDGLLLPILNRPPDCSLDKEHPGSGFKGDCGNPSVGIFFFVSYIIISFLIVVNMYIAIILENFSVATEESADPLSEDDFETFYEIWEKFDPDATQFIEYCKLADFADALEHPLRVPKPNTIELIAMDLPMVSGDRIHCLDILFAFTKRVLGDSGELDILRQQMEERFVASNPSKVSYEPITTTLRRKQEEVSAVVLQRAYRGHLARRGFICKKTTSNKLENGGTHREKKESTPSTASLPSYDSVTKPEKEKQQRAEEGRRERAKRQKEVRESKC
Source text: Evaluation of Compounds as State-Dependent Inhibitors
Use dependent block is an important characteristic for AED activity since it allows increased inhibition of sodium channels during increased neuronal activity as is observed during seizures.

[1] = system: maximal electroshock (MES) seizures; experiment: MES (maximal electroshock) test, mice; assay type: in vivo; settings: for MES N/F (animals active over number tested): 100 mg/kg
Source text: Evaluation of Compounds in MES Models of Seizures. […] These seizures are highly reproducible and are electrophysiologically consistent with human seizures. […] Abolition of the hindleg tonic extensor component of the seizure was used as the endpoint.

[2] = system: maximal electroshock (MES) seizures; experiment: MES (maximal electroshock) test, rats; assay type: in vivo; settings: for MES N/F (animals active over number tested): 30 mg/kg
Source text: Evaluation of Compounds in MES Models of Seizures. The MES is a model for generalized tonic-clonic seizures and provides an indication of a compound's ability to prevent seizure spread when all neuronal circuits in the brain are maximally active. These seizures are highly reproducible and are electrophysiologically consistent with human seizures. […] Abolition of the hindleg tonic extensor component of the seizure was used as the endpoint.

[3] = system: Metrazol-induced clonic seizures; experiment: scM (subcutaneous Metrazol) test, mice; assay type: in vivo
Experimental: (§1) Evaluation of Compounds in scM Models of Seizures. Subcutaneous injection of the convulsant Metrazol produces clonic seizures in laboratory animals. […] Animals may be pretreated with various doses of the test compound given by ip injection. At a previously determined TPE (time to peak) of the test compound, the dose of Metrazol which will induce convulsions in 97% of animals (CD97:85 mg/kg mice) may be injected into a loose fold of skin in the midline of the neck. The animals may be placed in isolation cages to minimize stress and observed for the next 30 min for the presence or absence of a seizure. An episode of clonic spasms, approximately 3-5 seconds, of the fore and/or hindlimbs, jaws, or vibrissae may be taken as the endpoint. […] The scM test represents acute animal seizures.

[4] = system: Metrazol-induced clonic seizures; experiment: scM (subcutaneous Metrazol) test, rats; assay type: in vivo
Experimental: as §1

[5] = system: 6 Hz psychomotor seizures; experiment: 6 Hz psychomotor seizure test, mice; assay type: in vivo; settings: for 6 Hz N/F (animals active over number tested): 100 mg/kg; for ED50: Mus musculus
Experimental: Evaluation of Compounds in 6 Hz Pyschomotor Seizure Test
Compounds were tested using a 6 Hz psychomotor seizure test. […] For example, both the MES and scM models are insensitive to levetiracetam, a compound considered potentially useful in the management of refractory seizures. […] Thus, the 6 Hz test can serve as a therapy resistant screening paradigm of acute seizure activity.

[6] = system: corneal kindled mice seizures; experiment: Corneal kindled mice model; assay type: in vivo; settings: for Avg. Score / N/F (animals active over number tested): TPE 0.5 hours
Experimental: Evaluation of Compounds in Corneal Kindled Mice Model.
Corneal kindled mice are kindled electrically via 3 second stimulation at 8 mA, 60 Hz through corneal electrodes to produce 10 consecutive stage […] seizures according to the Racine scale. Animals are defined as kindled once they progress to a reproducible stage 5 seizure. 72 hours after the mice have been kindled the test substance is administered and, according to a previously determined TPE (time to peak), the animals are electrically stimulated. The animals are considered protected when displaying a stage 3, or lower, seizure.

[7] = Behavioral toxicity (TOX, TD50), rats; assay type: in vivo; settings: rat, in vivo, IP, Table 15, read-out: TOX TD50
rats = experiment: Behavioral toxicity (TOX, TD50), rats; assay type: in vivo; settings: IP, 30 mg/kg
mice = settings: mouse, in vivo, ip, 100 mg/kg
in vivo = settings: mouse, ip

Chain of Nav1.6 (Q9UQD0 whole entry): as above

For `Clc1ccc2nc(-c3ccccc3)[nH]c2c1` [MV1066, 6-chloro-2-phenyl-1H-1,3-benzodiazole], the inhibition at 100 µM (Nav1.6; 100 μM compound) was 95%, the IC50 (Nav1.6; NaV1.6, Table 2, MV1060-MV1091, unit inferred, read-out: IC50) was 34.6 µM and the “effect on current amplitude and activation gating” value (NaV1.6 sodium channels; 100 μM, 1 second pre-pulse) was “inhibits macroscopic current amplitude but has no effect on activation gating”. The use-dependent block (NaV1.6 sodium channels; 20 Hz) was “profound use-dependent block”, the “affinity by holding potential (dose response)” value (NaV1.6 sodium channels; cells held at −100 mV or −60 mV, stepped to +10 mV) was “greater affinity for cells held at −60 mV” and the ED50 ([1]; Mouse, time 0.5 hrs, read-out: ED50 from MES test) was 44.2 mg/kg. The ED50 ([1]; Mus musculus, mice, IP, Table 14, read-out: MES ED50) was 44.2 mg/kg, the “MES N/F (animals active over number tested)” value ([1]; mice, IP, 0.25 h) was 4/4 and the “MES N/F (animals active over number tested)” value ([1]; mice, IP, 0.5 h) was 4/4. The “MES N/F (animals active over number tested)” value ([1]; mice, IP, 1.0 h) was 4/4, the “MES N/F (animals active over number tested)” value ([1]; mice, IP, 2.0 h) was 4/4 and the “MES N/F (animals active over number tested)” value ([1]; mice, IP, 4.0 h) was 4/4. The ED50 ([2]; Rat, time 0.5 hrs, read-out: ED50 from MES test) was 25.1 mg/kg, the ED50 ([2]; Rattus norvegicus, rats, IP, Table 15, read-out: MES ED50) was 25.1 mg/kg and the “MES N/F (animals active over number tested)” value ([2]; rats, IP, 0.25 h) was 2/4. For the same compound, the “MES N/F (animals active over number tested)” value ([2]; rats, IP, 0.5 h) was 4/4, the “MES N/F (animals active over number tested)” value ([2]; rats, IP, 1.0 h) was 4/4 and the “MES N/F (animals active over number tested)” value ([2]; rats, IP, 2.0 h) was 3/4. The “MES N/F (animals active over number tested)” value ([2]; rats, IP, 4.0 h) was 4/4, the ED50 ([3]; Mus musculus, mice, IP, Table 14, read-out: sCM ED50) was 180 mg/kg and the ED50 ([3]; sc, Mouse, time 0.5 hrs, read-out: ED50 from scM test) was 181 mg/kg. For the same compound, the ED50 ([4]; Rattus norvegicus, rats, IP, Table 15, read-out: sCM ED50) was 96.9 mg/kg, the ED50 ([4]; sc, Rat, time 0.5 hrs, read-out: ED50 from scM test) was 97 mg/kg and the “6 Hz N/F (animals active over number tested)” value ([5]; IP, 32 mA, 0.25 h) was 4/4. The “6 Hz N/F (animals active over number tested)” value ([5]; IP, 32 mA, 0.5 h) was 4/4, the “6 Hz N/F (animals active over number tested)” value ([5]; IP, 32 mA, 1.0 h) was 3/4 and the “6 Hz N/F (animals active over number tested)” value ([5]; IP, 32 mA, 2.0 h) was 2/4. The “6 Hz N/F (animals active over number tested)” value ([5]; IP, 32 mA, 4.0 h) was 0/4, the “6 Hz N/F (animals active over number tested)” value ([5]; IP, 44 mA, 0.25 h) was 2/4 and the “6 Hz N/F (animals active over number tested)” value ([5]; IP, 44 mA, 0.5 h) was 2/4. For the same compound, the “6 Hz N/F (animals active over number tested)” value ([5]; IP, 44 mA, 1.0 h) was 2/4, the “6 Hz N/F (animals active over number tested)” value ([5]; IP, 44 mA, 2.0 h) was 0/4 and the “6 Hz N/F (animals active over number tested)” value ([5]; IP, 44 mA, 4.0 h) was 0/4. For the same compound, the ED50 ([5]; 32 mA, read-out: ED50 (6 Hz test)) was 67.1 mg/kg, the ED50 ([5]; IP, 32 mA, Table 14, read-out: 6 Hz (32 mA) ED50) was 67.1 mg/kg and the ED50 ([5]; IP, (14 mA) [sic], Table 14, read-out: 6 Hz (14 mA) ED50) was 72.4 mg/kg. For the same compound, the “Avg. Score” value ([6]; 35 mg/kg) was 4.75, the “N/F (animals active over number tested)” value ([6]; 35 mg/kg) was 1/8 and the “Avg. Score” value ([6]; 72 mg/kg) was 3.125. The “N/F (animals active over number tested)” value ([6]; 72 mg/kg) was 5/8, the “Avg. Score” value ([6]; 90 mg/kg) was 2.75 and the “N/F (animals active over number tested)” value ([6]; 90 mg/kg) was 5/8. The “Avg. Score” value ([6]; 120 mg/kg) was 0.375, the “N/F (animals active over number tested)” value ([6]; 120 mg/kg) was 8/8 and the ED50 ([6]; Mus musculus) was 64.1 mg/kg. For the same compound, the TD50 [7] was > 500 mg/kg, the “TOX N/F (animals toxic over number tested)” value (rats; 0.25 h) was 0/4 and the “TOX N/F (animals toxic over number tested)” value (rats; 0.5 h) was 0/4. The “TOX N/F (animals toxic over number tested)” value (rats; 1.0 h) was 0/4, the “TOX N/F (animals toxic over number tested)” value (rats; 2.0 h) was 0/4 and the “TOX N/F (animals toxic over number tested)” value (rats; 4.0 h) was 0/4. The “TOX N/F (animals toxic over number tested)” value (mice; 0.5 h) was 0/4, the “TOX N/F (animals toxic over number tested)” value (mice; 1 h) was 0/4 and the “TOX N/F (animals toxic over number tested)” value (mice; 2 h) was 0/4. For the same compound, the “TOX N/F (animals toxic over number tested)” value (mice; 4 h) was 0/4 and the TD50 (in vivo) was 383 mg/kg.

Reference: patent US12403128B2, “Compositions and methods for blocking sodium channels” (University of Virginia Patent Foundation, priority 2017, dated 2025)
